Laboratory results from PMC8036666, “Biological and Physico-Chemical Characteristics of Arginine-Rich Peptide Gemini Surfactants with Lysine and Cystine Spacers” (International Journal of Molecular Sciences, 2021).

Assays:
[1] = system: Pseudomonas aeruginosa ATCC 9027; design: method as in PMID 31581500; conditions: biofilm, previous study ref 65; cited from earlier work
[2] = system: Staphylococcus aureus ATCC 25923; design: method as in PMID 31581500; conditions: planktonic culture, previous study ref 65; cited from earlier work
[3] = system: E. coli ML-35 (ATCC 43827)
Text: (§1) The permeabilization of E. coli ML-35 (ATCC 43827) membranes was studied for selected compounds (A4, B2, C2, B7, and C7) to compare their activity and membrane disruption over time. […] For OM and IM permeabilization, CENTA and ONPG were used, respectively. The permeabilization of OM causes the release of periplasmic β-lactamase, which hydrolyzes CENTA’s β-lactam ring to form a chromophore, 2-nitro-5-thiobenzoate (TNB) anion, while the disruption of IM results in the release of β-galactosidase, which hydrolyzes ONPG into galactose and a chromophore, ortho-nitrophenol (ONP). Both products of enzymatic reaction absorb light at 405 nm.
The MICs were determined by the broth microdilution method according to the Clinical and Laboratory Standard Institute guidelines. For this purpose, initial inoculums of bacteria (5 × 10^5 CFU/mL) in MHB and yeasts (2 × 10^3 CFU/mL) in RPMI-1640 with 2% D-glucose were exposed to the ranging concentration of lipopeptides (0.5–256 μg/mL) and incubated at 37 °C for 18 h and 24 h, respectively. The experiments were conducted on 96-well microtiter polystyrene plates (Kartell, Noviglio, Italy). The growth was assessed visually after incubation, and the MIC was assumed as the lowest peptide concentration at which a noticeable growth of microorganisms was inhibited. All experiments were conducted in triplicate.
Inner and outer membranes permeabilization kinetics were evaluated using Escherichia coli ML-35 (ATCC 43827) and chromogenic substrates—CENTA (BioVision, Milpitas, CA, USA) and o-nitrophenyl-β-d-galactopyranoside (ONPG) (Sigma-Aldrich, Steinheim, Germany), as described previously. To examine OM permeabilization, CENTA was used as a β-lactamase substrate. In effect of OM permeabilization, the enzyme can hydrolyze CENTA’s β-lactam ring. The resulting color change (2-nitro-5-thiobenzoate anion, TNB^-) could be measured spectrophotometrically at 405 nm. The IM permeabilization was monitored with ONPG, which is a chromogenic β-galactosidase substrate. The product of this reaction ([…]) was measured spectrophotometrically at 405 nm (Multiskan GO Microplate Spectrophotometer, Thermo Fisher Scientific, Vantaa, Finland). […] Bacteria were incubated in lysogeny broth medium (LB; Biocorp, Warszawa, Poland) for 24 h at 37 °C. Subsequently, the cells were diluted in a fresh LB medium and incubated at 37 °C up to a mid-log phase (ca. 3 h). The culture was centrifuged (3 min, 1100× g) and rinsed twice with a PBS. The bacteria were resuspended in PBS up to a concentration of 5 × 10^6 CFU/mL. The final concentration of ONPG and CENTA was 1.5 mM and 0.15 mM, respectively. The ONPG/CENTA in PBS (Sigma-Aldrich, Steinheim, Germany) was used as a negative control. […] Readings were taken every 15 min for 3 h at 37 °C [125, 142, 143, 144]. Experiments were performed in triplicate on 96-well flat bottom microtiter polystyrene plates.

[4] = system: E. coli ML-35 (ATCC 43827); assay: Outer membrane (OM) permeabilization kinetics, CENTA; format: cell-based, Escherichia coli; conditions: over 3 h, 2 µg/mL (MIC)
Text: as §1
Inner and outer membranes permeabilization kinetics were evaluated using Escherichia coli ML-35 (ATCC 43827) and chromogenic substrates—CENTA (BioVision, Milpitas, CA, USA) and o-nitrophenyl-β-d-galactopyranoside (ONPG) (Sigma-Aldrich, Steinheim, Germany), as described previously. To examine OM permeabilization, CENTA was used as a β-lactamase substrate. In effect of OM permeabilization, the enzyme can hydrolyze CENTA’s β-lactam ring.

C12-KKC-NH2 [Compound C12-KKC-NH2]
MBEC P. aeruginosa ATCC 9027 [1]: > 512

C14-KKC-NH2 [Compound C14-KKC-NH2]
MIC S. aureus ATCC 25923 [2]: 32 µg/mL

polymyxin B [reference compound]
MIC E. coli ML-35 (ATCC 43827) [3]: 2 µg/mL | increase of absorbance at 405 nm, OM permeabilization [4]: ca. 0.25 AU
